Assay results published in US8536195B2, “Bicyclic derivatives as modulators of ion channels” (Vertex Pharmaceuticals Incorporated, priority 2005, dated 2013).

Molecular target: NaV1.8 (Homo sapiens, UniProt Q9Y5Y9)
Assay: not given
Conditions: read-out: TTX IC50; cited from earlier work

Chain of NaV1.8 (Q9Y5Y9 whole entry, looked up): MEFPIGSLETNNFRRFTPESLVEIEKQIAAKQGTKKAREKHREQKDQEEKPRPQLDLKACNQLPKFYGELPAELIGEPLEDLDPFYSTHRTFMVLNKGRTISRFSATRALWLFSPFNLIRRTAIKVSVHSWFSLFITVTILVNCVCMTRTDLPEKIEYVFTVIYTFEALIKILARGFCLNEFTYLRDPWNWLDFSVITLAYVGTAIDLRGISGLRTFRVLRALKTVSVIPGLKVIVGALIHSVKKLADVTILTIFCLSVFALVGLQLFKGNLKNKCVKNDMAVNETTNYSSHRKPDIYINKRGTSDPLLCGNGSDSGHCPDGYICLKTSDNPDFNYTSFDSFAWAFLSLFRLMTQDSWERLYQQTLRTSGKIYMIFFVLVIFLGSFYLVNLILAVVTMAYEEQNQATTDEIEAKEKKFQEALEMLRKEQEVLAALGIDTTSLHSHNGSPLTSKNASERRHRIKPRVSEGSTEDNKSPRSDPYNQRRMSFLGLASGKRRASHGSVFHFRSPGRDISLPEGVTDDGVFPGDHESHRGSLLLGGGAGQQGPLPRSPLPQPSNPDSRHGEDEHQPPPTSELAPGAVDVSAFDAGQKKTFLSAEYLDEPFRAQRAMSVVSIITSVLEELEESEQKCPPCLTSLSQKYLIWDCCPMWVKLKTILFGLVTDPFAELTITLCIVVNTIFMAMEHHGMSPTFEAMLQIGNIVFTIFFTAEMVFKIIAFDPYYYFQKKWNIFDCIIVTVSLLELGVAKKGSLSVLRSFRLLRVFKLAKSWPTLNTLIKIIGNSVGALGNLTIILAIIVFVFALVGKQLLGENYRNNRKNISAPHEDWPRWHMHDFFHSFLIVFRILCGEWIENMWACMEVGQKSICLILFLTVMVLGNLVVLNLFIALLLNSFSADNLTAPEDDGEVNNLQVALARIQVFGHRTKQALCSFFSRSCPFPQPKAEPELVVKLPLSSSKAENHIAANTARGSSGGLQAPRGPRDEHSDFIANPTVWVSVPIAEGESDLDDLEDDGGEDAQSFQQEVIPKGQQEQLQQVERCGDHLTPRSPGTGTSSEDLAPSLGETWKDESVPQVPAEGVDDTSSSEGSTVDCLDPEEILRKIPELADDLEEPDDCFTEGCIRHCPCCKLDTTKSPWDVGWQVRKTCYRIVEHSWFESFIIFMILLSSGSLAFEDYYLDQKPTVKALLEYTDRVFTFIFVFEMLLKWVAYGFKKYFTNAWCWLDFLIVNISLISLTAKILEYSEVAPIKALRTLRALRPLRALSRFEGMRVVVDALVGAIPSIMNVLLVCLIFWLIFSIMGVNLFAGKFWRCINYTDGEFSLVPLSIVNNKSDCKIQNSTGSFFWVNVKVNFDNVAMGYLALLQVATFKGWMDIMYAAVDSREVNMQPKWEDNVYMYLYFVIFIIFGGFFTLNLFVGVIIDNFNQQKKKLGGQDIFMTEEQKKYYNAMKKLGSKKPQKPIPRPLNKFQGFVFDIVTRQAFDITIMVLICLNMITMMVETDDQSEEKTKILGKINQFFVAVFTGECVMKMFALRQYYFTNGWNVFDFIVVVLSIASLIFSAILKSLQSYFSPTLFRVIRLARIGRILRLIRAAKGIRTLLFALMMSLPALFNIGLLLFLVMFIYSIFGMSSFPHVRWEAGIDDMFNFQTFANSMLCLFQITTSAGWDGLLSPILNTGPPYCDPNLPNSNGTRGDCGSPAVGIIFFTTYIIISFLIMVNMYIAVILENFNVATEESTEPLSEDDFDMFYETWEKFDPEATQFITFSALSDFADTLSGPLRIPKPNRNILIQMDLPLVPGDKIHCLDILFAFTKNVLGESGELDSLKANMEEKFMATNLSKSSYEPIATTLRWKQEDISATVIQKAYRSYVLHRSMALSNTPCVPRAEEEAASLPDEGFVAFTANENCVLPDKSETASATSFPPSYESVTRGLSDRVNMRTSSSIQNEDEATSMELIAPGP

Which IC50 does the source give for `NC1=N[C@H](O)[C@H]2[C@H]3O[C@]4(O)O[C@@H]([C@@H](O)[C@@]2(N1)[C@@H]4O)[C@]3(O)CO` [TTX, tetrodotoxin] here?
Its IC50 is over 50 µM.

Molecular target: T1, NaV1.3 (Homo sapiens, UniProt Q9NY46)
Assay: Activity against NaV 1.3 channel (VIPR optical membrane potential assay with electrical stimulation)
Assay type: cell-based
Parameters: expressed in transfected cells; host or cells: HEK293
Conditions: not given
Description: Compounds of the invention are useful as antagonists of voltage-gated sodium ion channels. Antagonist properties of test compounds were assessed as follows. Cells expressing the NaV of interest were placed into microtiter plates. After an incubation period, the cells were stained with fluorescent dyes sensitive to the transmembrane potential. The test compounds were added to the microtiter plate. The cells were stimulated with either a chemical or electrical means to evoke a NaV dependent membrane potential change from unblocked channels, which was detected and measured with trans-membrane potential-sensitive dyes. Antagonists were detected as a decreased membrane potential response to the stimulus. The optical membrane potential assay utilized voltage-sensitive FRET sensors described by Gonzalez and Tsien (See Gonzalez, J. E. and R. Y. Tsien (1995) “Voltage sensing by fluorescence resonance energy transfer in single cells” Biophys J 69(4): 1272-80, and Gonzalez, J. E. and R. Y. Tsien (1997) “Improved indicators of cell membrane potential that use fluorescence resonance energy transfer” Chem Biol 4(4): 269-77) in combination with instrumentation for measuring fluorescence changes such as the Voltage/Ion Probe Reader (VIPR®) (See Gonzalez, J. E., K. Oades, et al. (1999) “Cell-based assays and instrumentation for screening ion-channel targets” Drug Discov Today 4(9): 431-439).
The following is an example of how NaV1.3 inhibition activity is measured using the optical membrane potential method #2. Other subtypes are performed in an analogous mode in a cell line expressing the NaV of interest.
HEK293 cells stably expressing NaV1.3 are plated into 96-well microtiter plates. After an appropriate incubation period, the cells are stained with the voltage sensitive dyes CC2-DMPE/DiSBAC2(3) as follows.
2×CC2-DMPE=20 μM CC2-DMPE: 10 mM CC2-DMPE is vortexed with an equivalent volume of 10% pluronic, followed by vortexing in required amount of HBSS containing 10 mM HEPES. Each cell plate will require 5 mL of 2×CC2-DMPE. 50 μL of 2×CC2-DMPE is to wells containing washed cells, resulting in a 10 μM final staining concentration. The cells are stained for 30 minutes in the dark at RT.
2×DISBAC2(3) with ABSC1=6 μM DISBAC2(3) and 1 mM ABSC1: The required amount of 10 mM DISBAC2(3) is added to a 50 ml conical tube and mixed with 1 μL 10% pluronic for each mL of solution to be made and vortexed together. Then HBSS/HEPES is added to make up 2× solution. Finally, the ABSC1 is added.
The 2×DiSBAC2(3) solution can be used to solvate compound plates. Note that compound plates are made at 2× drug concentration. Wash stained plate again, leaving residual volume of 50 μL. Add 50 uL/well of the 2×DiSBAC2(3) w/ABSC1. Stain for 30 minutes in the dark at RT.
The electrical stimulation instrument and methods of use are described in ION Channel Assay Methods PCT/US01/21652, herein incorporated by reference. The instrument comprises a microtiter plate handler, an optical system for exciting the coumarin dye while simultaneously recording the coumarin and oxonol emissions, a waveform generator, a current- or voltage-controlled amplifier, and a device for inserting electrodes in well. Under integrated computer control, this instrument passes user-programmed electrical stimulus protocols to cells within the wells of the microtiter plate.
Insert or use electrodes into each well to be assayed.
Use the current-controlled amplifier to deliver stimulation wave pulses for 3 s. Two seconds of pre-stimulus recording are performed to obtain the un-stimulated intensities. Five seconds of post-stimulation recording are performed to examine the relaxation to the resting state.
Data are analyzed and reported as normalized ratios of background-subtracted emission intensities measured in the 460 nm and 580 nm channels. Background intensities are then subtracted from each assay channel. […]
Target sequence in this assay (Q9NY46 whole entry): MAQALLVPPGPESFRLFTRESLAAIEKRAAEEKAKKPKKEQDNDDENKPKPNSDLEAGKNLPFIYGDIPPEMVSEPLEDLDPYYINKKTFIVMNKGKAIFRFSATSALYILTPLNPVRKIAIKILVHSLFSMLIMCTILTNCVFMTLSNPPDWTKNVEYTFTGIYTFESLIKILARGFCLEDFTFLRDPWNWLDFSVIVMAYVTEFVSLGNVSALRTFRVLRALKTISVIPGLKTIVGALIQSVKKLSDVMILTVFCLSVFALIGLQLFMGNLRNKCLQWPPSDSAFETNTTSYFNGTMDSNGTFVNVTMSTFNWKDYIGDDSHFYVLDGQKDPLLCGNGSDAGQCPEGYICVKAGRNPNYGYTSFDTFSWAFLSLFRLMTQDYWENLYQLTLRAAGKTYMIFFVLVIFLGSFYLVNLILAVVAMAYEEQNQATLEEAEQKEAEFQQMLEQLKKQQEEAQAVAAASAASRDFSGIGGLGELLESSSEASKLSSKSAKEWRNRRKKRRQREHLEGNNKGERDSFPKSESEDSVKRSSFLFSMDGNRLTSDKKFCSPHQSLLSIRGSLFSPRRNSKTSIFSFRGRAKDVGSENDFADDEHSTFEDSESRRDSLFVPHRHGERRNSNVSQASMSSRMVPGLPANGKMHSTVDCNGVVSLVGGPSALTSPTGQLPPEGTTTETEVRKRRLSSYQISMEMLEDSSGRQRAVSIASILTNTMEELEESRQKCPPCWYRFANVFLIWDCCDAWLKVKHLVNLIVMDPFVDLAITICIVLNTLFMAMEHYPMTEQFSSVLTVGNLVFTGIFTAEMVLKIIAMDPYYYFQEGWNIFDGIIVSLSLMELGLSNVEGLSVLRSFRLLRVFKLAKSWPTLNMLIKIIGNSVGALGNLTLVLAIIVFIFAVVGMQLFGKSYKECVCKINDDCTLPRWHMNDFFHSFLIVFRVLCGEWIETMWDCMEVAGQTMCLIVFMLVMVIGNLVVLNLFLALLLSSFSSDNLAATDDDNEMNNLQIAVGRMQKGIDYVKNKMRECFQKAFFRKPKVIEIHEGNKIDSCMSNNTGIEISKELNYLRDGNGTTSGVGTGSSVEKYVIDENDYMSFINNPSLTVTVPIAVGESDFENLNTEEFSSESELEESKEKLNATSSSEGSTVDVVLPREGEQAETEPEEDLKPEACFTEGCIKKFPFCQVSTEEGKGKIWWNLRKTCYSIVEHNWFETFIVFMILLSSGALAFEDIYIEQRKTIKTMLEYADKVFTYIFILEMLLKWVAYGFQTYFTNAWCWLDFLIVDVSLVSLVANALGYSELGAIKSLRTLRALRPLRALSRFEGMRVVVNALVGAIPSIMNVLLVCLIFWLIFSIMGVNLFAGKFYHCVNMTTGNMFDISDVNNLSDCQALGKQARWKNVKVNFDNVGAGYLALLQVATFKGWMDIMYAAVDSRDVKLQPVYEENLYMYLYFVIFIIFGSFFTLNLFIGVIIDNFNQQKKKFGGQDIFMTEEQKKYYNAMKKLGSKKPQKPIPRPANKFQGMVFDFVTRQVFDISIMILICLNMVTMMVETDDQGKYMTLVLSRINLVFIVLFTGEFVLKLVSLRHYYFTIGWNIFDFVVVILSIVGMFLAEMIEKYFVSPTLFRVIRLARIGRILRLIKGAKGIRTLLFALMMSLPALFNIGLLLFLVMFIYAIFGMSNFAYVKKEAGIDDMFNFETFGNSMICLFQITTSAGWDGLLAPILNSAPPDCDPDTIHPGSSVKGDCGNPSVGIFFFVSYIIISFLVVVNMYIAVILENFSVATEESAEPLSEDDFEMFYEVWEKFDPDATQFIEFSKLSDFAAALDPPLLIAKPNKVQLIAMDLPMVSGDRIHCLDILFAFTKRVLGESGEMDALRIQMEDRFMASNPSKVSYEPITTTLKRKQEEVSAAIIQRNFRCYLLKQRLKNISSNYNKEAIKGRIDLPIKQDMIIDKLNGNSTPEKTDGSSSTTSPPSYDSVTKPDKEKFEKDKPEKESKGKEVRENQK

With `O=C1Nc2ccc(S(=O)(=O)Nc3nncs3)cc2CC1CCOc1ccc(Cl)cc1Cl` (stereo not shown) [Compound 1] as the molecule, how does the IC50 read?
Its IC50 is 5 to 20 µM.

For `O=C1Nc2ccc(S(=O)(=O)Nc3cnsn3)cc2CC1CCOc1ccc(Cl)cc1Cl` (stereo not shown) [Compound 6], which IC50 is on record?
Its IC50 is 5 to 20 µM.

For `O=C1Nc2ccc(S(=O)(=O)Nc3ncccn3)cc2CC1CCOc1ccc(Cl)cc1Cl` (stereo not shown) [Compound 15], which IC50 is on record?
Its IC50 is 5 to 20 µM.

With `O=C1Nc2ccc(S(=O)(=O)Nc3ccccn3)cc2CC1CCOc1ccc(Cl)cc1Cl` (stereo not shown) [Compound 8] as the molecule, how does the IC50 read?
Its IC50 is 5 to 20 µM.

With `O=C1Nc2ccc(S(=O)(=O)Nc3nnc(-c4ccccc4)s3)cc2CC1CCOc1ccc(Cl)cc1Cl` (stereo not shown) [Compound 2] as the molecule, how does the IC50 read?
Its IC50 is 5 to 20 µM.

Which IC50 does the source give for `COc1nc(NS(=O)(=O)c2ccc3c(c2)CC(CCOc2ccc(Cl)cc2Cl)C(=O)N3)ns1` (stereo not shown) [Compound 13] here?
The IC50 was 5 to 20 µM.

With `Cc1nnc(NS(=O)(=O)c2ccc3c(c2)CC(CCOc2ccc(Cl)cc2Cl)C(=O)N3)s1` (stereo not shown) [Compound 11, 3-[2-(2,4-Dichloro-phenoxy)-ethyl]-2-oxo-1,2,3,4-tetrahydro-quinoline-6-sulfonic acid (5-methyl-[1,3,4]thiadiazol-2-yl)-amide] as the molecule, how does the IC50 read?
Its IC50 is 5 to 20 µM.

With `O=C1Nc2ccc(S(=O)(=O)Nc3nc[nH]n3)cc2CC1CCOc1ccc(Cl)cc1Cl` (stereo not shown) [Compound 14] as the molecule, how does the IC50 read?
The IC50 was 5 to 20 µM.

With `O=C1Nc2ccc(S(=O)(=O)Nc3nnc(C4CC4)s3)cc2CC1CCOc1ccc(Cl)cc1Cl` (stereo not shown) [Compound 9] as the molecule, how does the IC50 read?
Its IC50 is 5 to 20 µM.

For `O=C1Nc2ccc(S(=O)(=O)Nc3nc(-c4ccccc4)ns3)cc2CC1CCOc1ccc(Cl)cc1Cl` (stereo not shown) [Compound 12], which IC50 is on record?
The IC50 was 5 to 20 µM.

Which IC50 does the source give for `O=C1Nc2ccc(S(=O)(=O)Nc3nccs3)cc2CC1CCOc1ccc(Cl)cc1Cl` (stereo not shown) [Compound 3] here?
Its IC50 is 5 to 20 µM.

With `Cc1ccnc(NS(=O)(=O)c2ccc3c(c2)CC(CCOc2ccc(Cl)cc2Cl)C(=O)N3)n1` (stereo not shown) [Compound 10, 3-[2-(2,4-Dichloro-phenoxy)-ethyl]-2-oxo-1,2,3,4-tetrahydro-quinoline-6-sulfonic acid (4-methyl-pyrimidin-2-yl)-amide] as the molecule, how does the IC50 read?
The IC50 was 5 to 20 µM.

For `Cc1cc(C)nc(NS(=O)(=O)c2ccc3c(c2)CC(CCOc2ccc(Cl)cc2Cl)C(=O)N3)n1` (stereo not shown) [Compound 4], which IC50 is on record?
The IC50 was 5 to 20 µM.

For `Cc1cnc(NS(=O)(=O)c2ccc3c(c2)CC(CCOc2ccc(Cl)cc2Cl)C(=O)N3)s1` (stereo not shown) [Compound 7], which IC50 is on record?
The IC50 was 5 to 20 µM.

Which IC50 does the source give for `Cc1csc(NS(=O)(=O)c2ccc3c(c2)CC(CCOc2ccc(Cl)cc2Cl)C(=O)N3)n1` (stereo not shown) [Compound 16] here?
The IC50 was 5 to 20 µM.

For `O=C1Nc2ccc(S(=O)(=O)Nc3nc4ccccc4s3)cc2CC1CCOc1ccc(Cl)cc1Cl` (stereo not shown) [Compound 5, 3-[2-(2,4-Dichloro-phenoxy)-ethyl]-2-oxo-1,2,3,4-tetrahydro-quinoline-6-sulfonic acid benzothiazol-2-ylamide], which IC50 is on record?
The IC50 was 5 to 20 µM.

Molecular target: T1, NaV1.3
Assay: not given
Conditions: read-out: TTX IC50; cited from earlier work
Target sequence in this assay (Q9NY46 whole entry, looked up): as the sequence (Q9NY46 whole entry) above

Which IC50 does the source give for `NC1=N[C@H](O)[C@H]2[C@H]3O[C@]4(O)O[C@@H]([C@@H](O)[C@@]2(N1)[C@@H]4O)[C@]3(O)CO` [TTX, tetrodotoxin] here?
Its IC50 is 0.015 µM.

System: not given
Assay: not given
Conditions: neuropathic pain, modest efficacy; cited from earlier work

For `NCC1(CC(=O)O)CCCCC1` [Gabapentin], which “share of patients in which it works” value is on record?
The value was 60%.
